Measurements: patent US20230373952A1, “LACTAM COMPOUNDS AS Kv1.3 POTASSIUM SHAKER CHANNEL BLOCKERS” (D.E. Shaw Research, LLC, priority 2020, published 2023)

Tests used:
hERG channel [1] = molecular target: T1, hERG channel (Homo sapiens, UniProt Q12809); assay: hERG electrophysiology, automated whole-cell patch clamp (Patchliner); details: read-out: hERG IC50; CHO-K1 cells stably expressing hERG; whole-cell current inhibition, Hill fit
Kv1.3 potassium channel = molecular target: T2, Kv1.3 potassium channel (Homo sapiens, UniProt P22001); assay: Kv1.3 potassium channel blocker activity, automated whole-cell patch clamp (Patchliner); type: cell-based; details: CHO-K1 cells stably expressing Kv1.3; whole-cell current inhibition, Hill fit; read-out: Kv1.3 IC50
T2 construct: expressed in transfected cells
T2 sequence (P22001 whole entry): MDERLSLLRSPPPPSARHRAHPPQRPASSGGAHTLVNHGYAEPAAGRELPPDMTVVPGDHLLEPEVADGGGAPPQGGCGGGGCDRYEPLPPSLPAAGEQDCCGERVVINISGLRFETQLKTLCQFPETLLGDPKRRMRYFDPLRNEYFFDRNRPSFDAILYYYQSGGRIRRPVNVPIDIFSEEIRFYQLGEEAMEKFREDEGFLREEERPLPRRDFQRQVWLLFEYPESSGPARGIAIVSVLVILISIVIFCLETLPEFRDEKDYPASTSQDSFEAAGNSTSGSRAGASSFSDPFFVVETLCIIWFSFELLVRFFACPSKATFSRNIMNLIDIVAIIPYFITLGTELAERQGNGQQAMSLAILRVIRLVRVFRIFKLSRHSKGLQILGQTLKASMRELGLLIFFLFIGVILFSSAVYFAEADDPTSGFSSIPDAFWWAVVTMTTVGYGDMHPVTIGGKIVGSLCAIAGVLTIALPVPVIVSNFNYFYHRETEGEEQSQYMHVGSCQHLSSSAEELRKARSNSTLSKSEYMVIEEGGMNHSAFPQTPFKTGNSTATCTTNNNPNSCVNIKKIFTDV

hERG channel [2] = molecular target: T1, hERG channel; assay: cell-based

T1 sequence (Q12809 whole entry): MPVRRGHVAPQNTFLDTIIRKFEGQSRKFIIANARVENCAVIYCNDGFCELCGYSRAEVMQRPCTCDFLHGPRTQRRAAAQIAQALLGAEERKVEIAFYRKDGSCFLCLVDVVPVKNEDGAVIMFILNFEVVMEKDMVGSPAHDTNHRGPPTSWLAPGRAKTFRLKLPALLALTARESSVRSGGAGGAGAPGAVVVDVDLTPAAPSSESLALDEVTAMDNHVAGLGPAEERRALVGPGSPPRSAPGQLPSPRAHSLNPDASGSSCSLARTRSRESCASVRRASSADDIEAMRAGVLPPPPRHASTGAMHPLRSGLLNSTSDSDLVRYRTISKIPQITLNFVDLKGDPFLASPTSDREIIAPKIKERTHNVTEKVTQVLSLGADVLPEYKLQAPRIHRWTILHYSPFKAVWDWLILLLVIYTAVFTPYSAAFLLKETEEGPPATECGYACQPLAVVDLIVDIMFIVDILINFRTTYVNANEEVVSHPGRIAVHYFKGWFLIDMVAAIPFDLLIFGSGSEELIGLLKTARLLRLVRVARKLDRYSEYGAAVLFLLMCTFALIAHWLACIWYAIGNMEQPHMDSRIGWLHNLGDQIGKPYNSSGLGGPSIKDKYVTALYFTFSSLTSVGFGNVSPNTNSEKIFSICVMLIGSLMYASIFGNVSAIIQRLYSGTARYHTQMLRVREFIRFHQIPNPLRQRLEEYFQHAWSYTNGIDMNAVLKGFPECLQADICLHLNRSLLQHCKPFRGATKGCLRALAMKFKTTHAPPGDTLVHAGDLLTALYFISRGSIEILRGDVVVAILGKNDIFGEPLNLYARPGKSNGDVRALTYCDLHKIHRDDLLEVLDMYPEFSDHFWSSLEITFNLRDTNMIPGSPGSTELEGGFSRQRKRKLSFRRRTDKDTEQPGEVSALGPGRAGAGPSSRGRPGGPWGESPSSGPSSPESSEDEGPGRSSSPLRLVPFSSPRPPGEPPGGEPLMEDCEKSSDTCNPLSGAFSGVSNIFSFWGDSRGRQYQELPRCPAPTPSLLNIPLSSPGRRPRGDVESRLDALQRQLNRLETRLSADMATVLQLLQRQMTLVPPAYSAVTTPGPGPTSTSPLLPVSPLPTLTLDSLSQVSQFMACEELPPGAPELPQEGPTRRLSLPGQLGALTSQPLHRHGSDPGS

IC50 (Kv1.3 potassium channel) | Structure (SMILES) | IC50 (hERG channel [1]) | IC50 (hERG channel [2])
< 0.1 µM | C[C@@H]1[C@H](c2c(O)ccc(Cl)c2Cl)CC(=O)N1C1CNC1 [Compound 82, (4S,5R)-1-(azetidin-3-yl)-4-(2,3-dichloro-6-hydroxyphenyl)-5-methylpyrrolidin-2-one] | > 30 µM | –
< 0.1 µM | CC1[C@H](c2c(O)ccc(Cl)c2Cl)CC(=O)N1C1CNC1 (stereo in doubt) [Compound 77, (4S,5S)-1-(azetidin-3-yl)-4-(2,3-dichloro-6-hydroxyphenyl)-5-methylpyrrolidin-2-one] | – | > 30 µM
< 0.1 µM | Nc1cc(N2C[C@H](c3c(O)ccc(Cl)c3Cl)CC2=O)ccn1 [Compound 62, (S)-1-(2-aminopyridin-4-yl)-4-(2,3-dichloro-6-hydroxyphenyl)pyrrolidin-2-one] | – | > 1 µM
< 0.1 µM | C[C@@H](O)CN1C[C@H](c2c(O)ccc(Cl)c2Cl)CC1=O [Compound 53, (S)-4-(2,3-dichloro-6-hydroxyphenyl)-1-((R)-2-hydroxypropyl)pyrrolidin-2-one] | – | > 30 µM
< 0.1 µM | O=C1C[C@@H](c2c(O)ccc(Cl)c2Cl)CCN1[C@H]1CCNC1 (single isomer, unassigned) [Compound 2, 4-(2,3-dichloro-6-hydroxyphenyl)-1-[pyrrolidin-3-yl]piperidin-2-one] | – | > 30 µM
< 1 µM | Cn1cnc(N2C[C@H](c3c(O)ccc(Cl)c3Cl)CC2=O)n1 [Compound 66, (S)-4-(2,3-dichloro-6-hydroxyphenyl)-1-(1-methyl-1H-1,2,4-triazol-3-yl)pyrrolidin-2-one] | – | > 100 µM
< 0.1 µM | NCCN1C[C@H](c2c(O)ccc(Cl)c2Cl)CC1=O [Compound 21, (4S)-1-(2-aminoethyl)-4-(2,3-dichloro-6-hydroxyphenyl)pyrrolidin-2-one] | – | > 100 µM
< 0.1 µM | C[C@H]1[C@H](c2c(O)ccc(Cl)c2Cl)CC(=O)N1CCCO [Compound 86, (4S,5S)-4-(2,3-dichloro-6-hydroxyphenyl)-1-(3-hydroxypropyl)-5-methylpyrrolidin-2-one] | – | > 30 µM
< 1 µM | O=C1C[C@@H](c2c(O)ccc(Cl)c2Cl)CN1[C@@H]1CCNC1 (single isomer, unassigned) [Compound 14, 4-(2,3-dichloro-6-hydroxyphenyl)-[1,3-bipyrrolidin]-2-one] | – | > 30 µM
< 0.1 µM | O=C1CC[C@@H](c2c(O)ccc(Cl)c2Cl)CN1[C@@H]1CCNC1 (single isomer, unassigned) [Compound 5, 5-(2,3-dichloro-6-hydroxyphenyl)-1-[pyrrolidin-3-yl]piperidin-2-one] | – | > 30 µM
< 0.1 µM | COCCCN1C[C@H](c2c(O)ccc(Cl)c2Cl)CC1=O [Compound 44, (S)-4-(2,3-dichloro-6-hydroxyphenyl)-1-(3-methoxypropyl)pyrrolidin-2-one] | – | > 10 µM
< 0.1 µM | C[C@H]1[C@H](c2c(O)ccc(Cl)c2Cl)NC(=O)N1CCCO (relative stereo) [Compound 101, (4S,5S)-rel-4-(2,3-dichloro-6-hydroxyphenyl)-1-(3-hydroxypropyl)-5-methylimidazolidin-2-one] | – | > 30 µM
